# Measured values reported in US11178871B2, “Herbicidal pyrimidine compounds” (BASF SE, priority 2016, dated 2021).
# Legend:
# Format in all cases: in vivo
# Alopecurus myosuroides = assay: greenhouse test, post-emergence treatment, ALOMY; conditions: post-emergence
# Outline: (§1)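 Visual injury rating on a 0–100 scale (0 = no damage, 100 = aerial parts fully destroyed) after a 2–4 week test period. Foliar application of compound in aqueous suspension/emulsion to plants at 3–15 cm; greenhouse temperatures 10–25 °C or 20–35 °C depending on species.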
# Setaria viridis = assay: greenhouse test, post-emergence treatment, SETVI
# Text: (§2) The culture containers used were plastic flowerpots containing loamy sand with approximately 3.0% of humus as the substrate. The seeds of the test plants were sown separately for each species.
# (§3) For the post-emergence treatment, the test plants were first grown to a height of 3 to 15 cm, depending on the plant habit, and only then treated with the active ingredients which had been suspended or emulsified in water. For this purpose, the test plants were either sown directly and grown in the same containers, or they were first grown separately as seedlings and transplanted into the test containers a few days prior to treatment.
# (§4) Depending on the species, the plants were kept at 10-25° C. or 20-35° C., respectively.
# (§5) The test period extended over 2 to 4 weeks. During this time, the plants were tended, and their response to the individual treatments was evaluated.
# (§6) Evaluation was carried out using a scale from 0 to 100. 100 means no emergence of the plants, or complete destruction of at least the aerial moieties, and 0 means no damage, or normal course of growth. A good herbicidal activity is given at values of at least 70 and a very good herbicidal activity is given at values of at least 85.
# (§7) The plants used in the greenhouse experiments were of the following species: […]
# Apera spica-venti = assay: greenhouse test, pre-emergence treatment, APESV
# Outline: (§8)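 Herbicidal effect rated on a 0-100 scale, where 0 is normal growth and 100 is no emergence or destroyed aerial parts, 2 to 4 weeks after soil application at sowing.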
# Echinocloa crus-galli [1] = assay: greenhouse test, pre-emergence treatment, ECHCG
# Outline: as §8
# Amaranthus retroflexus = assay: greenhouse test, post-emergence treatment, AMARE
# Text: as §2, §3, §4, §5, §6, §7
# Echinocloa crus-galli [2] = assay: greenhouse test, post-emergence treatment, ECHCG; conditions: post-emergence
# Outline: as §1
# Avena fatua = assay: greenhouse test, post-emergence treatment, AVEFA; conditions: 1000 g/ha
# Outline: as §1
smiles,measurement,setting,value
Clc1ccccc1-c1cnc(C2CC2)nc1-c1ccc(Br)o1 [Ex. 31],herbicidal activity,Alopecurus myosuroides; 2000 g/ha,very good (a very good herbicidal activity is given at values of at least 85)
same,herbicidal activity,Setaria viridis; 2000 g/ha,very good (a very good herbicidal activity is given at values of at least 85)
same,herbicidal activity,Apera spica-venti; 2000 g/ha,very good (a very good herbicidal activity is given at values of at least 85)
same,herbicidal activity,Echinocloa crus-galli [1]; 2000 g/ha,very good (a very good herbicidal activity is given at values of at least 85)
COC(=O)C(O)Cc1nc(C2CC2)ncc1-c1ccccc1Cl (stereo not shown) [Ex. 129],herbicidal activity,Alopecurus myosuroides; 2000 g/ha,very good (a very good herbicidal activity is given at values of at least 85)
same,herbicidal activity,Amaranthus retroflexus; 2000 g/ha,very good (a very good herbicidal activity is given at values of at least 85)
same,herbicidal activity,Echinocloa crus-galli [2]; 2000 g/ha,very good (a very good herbicidal activity is given at values of at least 85)
same,herbicidal activity,Apera spica-venti; 2000 g/ha,very good (a very good herbicidal activity is given at values of at least 85)
O=[N+]([O-])c1ccccc1-c1cnc(C2CC2)nc1-c1cccs1 [Ex. 38],herbicidal activity,Setaria viridis; 1000 g/ha,good (A good herbicidal activity is given at values of at least 70)
CC(O)c1nc(C2CC2)ncc1-c1ccccc1Cl (stereo not shown) [Ex. 49],herbicidal activity,Alopecurus myosuroides; 1000 g/ha,very good (a very good herbicidal activity is given at values of at least 85)
same,herbicidal activity,Echinocloa crus-galli [2]; 1000 g/ha,good (A good herbicidal activity is given at values of at least 70)
same,herbicidal activity,Setaria viridis; 1000 g/ha,very good (a very good herbicidal activity is given at values of at least 85)
same,herbicidal activity,Apera spica-venti; 1000 g/ha,good (A good herbicidal activity is given at values of at least 70)
same,herbicidal activity,Echinocloa crus-galli [1]; 1000 g/ha,good (A good herbicidal activity is given at values of at least 70)
Cc1nc(C(C)Br)ncc1-c1ccccc1Cl (stereo not shown) [Ex. 52],herbicidal activity,Setaria viridis; 1000 g/ha,very good (a very good herbicidal activity is given at values of at least 85)
Clc1ccccc1-c1cnc(C2CC2)nc1CC1CCCC1 [Ex. 99],herbicidal activity,Setaria viridis; 2000 g/ha,very good (a very good herbicidal activity is given at values of at least 85)
CC(O)c1nc(C2CC2)ncc1-c1ccccc1Br (stereo not shown) [Ex. 114],herbicidal activity,Setaria viridis; 500 g/ha,very good (a very good herbicidal activity is given at values of at least 85)
Cc1cc(-c2nc(C3CC3)ncc2-c2ccccc2Cl)sn1 [Ex. 254],herbicidal activity,Alopecurus myosuroides; 1000 g/ha,good (A good herbicidal activity is given at values of at least 70)
same,herbicidal activity,Amaranthus retroflexus; 1000 g/ha,very good (a very good herbicidal activity is given at values of at least 85)
same,herbicidal activity,Echinocloa crus-galli [2]; 1000 g/ha,very good (a very good herbicidal activity is given at values of at least 85)
Clc1ccccc1-c1cnc(C2CC2)nc1CC1CCOCC1 [Ex. 96],herbicidal activity,Setaria viridis; 1000 g/ha,very good (a very good herbicidal activity is given at values of at least 85)
Fc1cccc(-c2cnc(C3CC3)nc2-c2ccco2)c1Cl [Ex. 33],herbicidal activity,Setaria viridis; 2000 g/ha,good (A good herbicidal activity is given at values of at least 70)
OC1(Cc2nc(C3CC3)ncc2-c2ccccc2Cl)CCCC1 [Ex. 74],herbicidal activity,Setaria viridis; 2000 g/ha,very good (a very good herbicidal activity is given at values of at least 85)
Clc1ccccc1-c1cnc(C2CC2)nc1CC1CCC1 [Ex. 98],herbicidal activity,Setaria viridis; 500 g/ha,good (A good herbicidal activity is given at values of at least 70)
Cc1ccoc1-c1nc(C2CC2)ncc1-c1ccccc1Cl [Ex. 30],herbicidal activity,Alopecurus myosuroides; 2000 g/ha,very good (a very good herbicidal activity is given at values of at least 85)
same,herbicidal activity,Setaria viridis; 2000 g/ha,very good (a very good herbicidal activity is given at values of at least 85)
same,herbicidal activity,Apera spica-venti; 2000 g/ha,very good (a very good herbicidal activity is given at values of at least 85)
same,herbicidal activity,Echinocloa crus-galli [1]; 2000 g/ha,very good (a very good herbicidal activity is given at values of at least 85)
COC(=O)COC(C)c1nc(C2CC2)ncc1-c1ccccc1Cl (stereo not shown) [Ex. 141],herbicidal activity,Setaria viridis; 1000 g/ha,good (A good herbicidal activity is given at values of at least 70)
CC(C)(C)CCc1nc(C2CC2)ncc1-c1ccccc1Cl [Ex. 103],herbicidal activity,Setaria viridis; 2000 g/ha,very good (a very good herbicidal activity is given at values of at least 85)
Ic1ccccc1-c1cnc(C2CCC2)nc1-c1ccco1 [Ex. 78],herbicidal activity,Setaria viridis; 1000 g/ha,very good (a very good herbicidal activity is given at values of at least 85)
CC(Br)c1ncc(-c2ccccc2Cl)c(CBr)n1 (stereo not shown) [Ex. 51],herbicidal activity,Setaria viridis; 1000 g/ha,very good (a very good herbicidal activity is given at values of at least 85)
Cc1nc(C)c(-c2nc(C3CC3)ncc2-c2cc(Br)ccc2Br)o1 [Ex. 292],herbicidal activity,Alopecurus myosuroides; 1000 g/ha,good (A good herbicidal activity is given at values of at least 70)
same,herbicidal activity,Echinocloa crus-galli [2]; 1000 g/ha,very good (a very good herbicidal activity is given at values of at least 85)
same,herbicidal activity,Setaria viridis; 1000 g/ha,very good (a very good herbicidal activity is given at values of at least 85)
same,herbicidal activity,Apera spica-venti; 1000 g/ha,very good (a very good herbicidal activity is given at values of at least 85)
same,herbicidal activity,Echinocloa crus-galli [1]; 1000 g/ha,very good (a very good herbicidal activity is given at values of at least 85)
CCc1ncc(-c2ccccc2Br)c(-c2ccco2)n1 [Ex. 62],herbicidal activity,Setaria viridis; 500 g/ha,very good (a very good herbicidal activity is given at values of at least 85)
OCc1nc(C2CC2)ncc1-c1ccc(F)cc1Cl [Ex. 15],herbicidal activity,Alopecurus myosuroides; 1000 g/ha,very good (a very good herbicidal activity is given at values of at least 85)
same,herbicidal activity,Amaranthus retroflexus; 1000 g/ha,good (A good herbicidal activity is given at values of at least 70)
same,herbicidal activity,Avena fatua,very good (a very good herbicidal activity is given at values of at least 85)
same,herbicidal activity,Apera spica-venti; 1000 g/ha,very good (a very good herbicidal activity is given at values of at least 85)
same,herbicidal activity,Echinocloa crus-galli [1]; 1000 g/ha,very good (a very good herbicidal activity is given at values of at least 85)
CCOP(=O)(OCC)C(Cc1nc(C2CC2)ncc1-c1ccccc1Cl)P(=O)(OCC)OCC [Ex. 88],herbicidal activity,Setaria viridis; 2000 g/ha,very good (a very good herbicidal activity is given at values of at least 85)
Cc1cc(-c2nc(C3CC3)ncc2-c2ccccc2Br)co1 [Ex. 271],herbicidal activity,Echinocloa crus-galli [2]; 1000 g/ha,good (A good herbicidal activity is given at values of at least 70)
same,herbicidal activity,Setaria viridis; 1000 g/ha,very good (a very good herbicidal activity is given at values of at least 85)
Ic1ccccc1-c1cnc(C2CC2)nc1-c1ccco1 [Ex. 76],herbicidal activity,Alopecurus myosuroides; 1000 g/ha,good (A good herbicidal activity is given at values of at least 70)
same,herbicidal activity,Setaria viridis; 1000 g/ha,very good (a very good herbicidal activity is given at values of at least 85)
O=P(O)(O)C(Cc1nc(C2CC2)ncc1-c1ccccc1Cl)P(=O)(O)O [Ex. 90],herbicidal activity,Setaria viridis; 2000 g/ha,very good (a very good herbicidal activity is given at values of at least 85)
Clc1ccc(-c2nc(C3CC3)ncc2-c2ccccc2Cl)s1 [Ex. 119],herbicidal activity,Alopecurus myosuroides; 1000 g/ha,very good (a very good herbicidal activity is given at values of at least 85)
same,herbicidal activity,Setaria viridis; 1000 g/ha,good (A good herbicidal activity is given at values of at least 70)
Clc1ccccc1-c1cnc(C2CC2)nc1C=C1CCOCC1 [Ex. 92],herbicidal activity,Alopecurus myosuroides; 2000 g/ha,good (A good herbicidal activity is given at values of at least 70)
same,herbicidal activity,Echinocloa crus-galli [2]; 2000 g/ha,good (A good herbicidal activity is given at values of at least 70)
same,herbicidal activity,Setaria viridis; 2000 g/ha,good (A good herbicidal activity is given at values of at least 70)
OC1(Cc2nc(C3CC3)ncc2-c2ccccc2Cl)CCC1 [Ex. 65],herbicidal activity,Amaranthus retroflexus; 2000 g/ha,very good (a very good herbicidal activity is given at values of at least 85)
same,herbicidal activity,Echinocloa crus-galli [2]; 2000 g/ha,very good (a very good herbicidal activity is given at values of at least 85)
Clc1ccccc1-c1cnc(C2CC2)nc1-c1ccco1 [Ex. 24],herbicidal activity,Echinocloa crus-galli [2]; 2000 g/ha,very good (a very good herbicidal activity is given at values of at least 85)
same,herbicidal activity,Setaria viridis; 2000 g/ha,very good (a very good herbicidal activity is given at values of at least 85)
same,herbicidal activity,Apera spica-venti; 2000 g/ha,very good (a very good herbicidal activity is given at values of at least 85)
same,herbicidal activity,Echinocloa crus-galli [1]; 2000 g/ha,very good (a very good herbicidal activity is given at values of at least 85)
COC(=O)Cc1nc(C2CC2)ncc1-c1cc(F)ccc1Cl [Ex. 150],herbicidal activity,Alopecurus myosuroides; 2000 g/ha,good (A good herbicidal activity is given at values of at least 70)
same,herbicidal activity,Amaranthus retroflexus; 2000 g/ha,very good (a very good herbicidal activity is given at values of at least 85)
same,herbicidal activity,Echinocloa crus-galli [2]; 2000 g/ha,very good (a very good herbicidal activity is given at values of at least 85)
same,herbicidal activity,Apera spica-venti; 2000 g/ha,very good (a very good herbicidal activity is given at values of at least 85)
same,herbicidal activity,Echinocloa crus-galli [1]; 2000 g/ha,good (A good herbicidal activity is given at values of at least 70)
CC(C)=Cc1nc(C2CC2)ncc1-c1ccccc1Cl [Ex. 70],herbicidal activity,Alopecurus myosuroides; 2000 g/ha,very good (a very good herbicidal activity is given at values of at least 85)
same,herbicidal activity,Setaria viridis; 2000 g/ha,very good (a very good herbicidal activity is given at values of at least 85)
